Data on 25 molecules can be found in ChEMBL document CHEMBL3259722, “MT1 and MT2 melatonin receptors: ligands, models, oligomers, and therapeutic potential” (J Med Chem, 2014).

Some results are limits rather than exact numbers.

The species entered for series [1] is Homo sapiens. In words: Selectivity ratio of Ki for MT2 receptor (unknown origin) to Ki for MT1 receptor (unknown origin).
Series [2] deals with T1, Melatonin receptor type 1B (Homo sapiens, UniProt P49286).
T1 sequence (P49286 whole entry): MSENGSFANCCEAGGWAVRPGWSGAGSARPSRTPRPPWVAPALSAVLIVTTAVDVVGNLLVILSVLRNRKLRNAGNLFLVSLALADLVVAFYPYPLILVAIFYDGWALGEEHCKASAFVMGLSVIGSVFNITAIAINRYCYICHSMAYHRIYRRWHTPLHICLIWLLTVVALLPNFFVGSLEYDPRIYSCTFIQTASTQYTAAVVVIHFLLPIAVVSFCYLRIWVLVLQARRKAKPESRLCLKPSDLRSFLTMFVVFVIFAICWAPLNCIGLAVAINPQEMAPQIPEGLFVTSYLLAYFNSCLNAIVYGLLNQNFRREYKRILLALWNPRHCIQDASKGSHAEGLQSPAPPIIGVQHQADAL
In words: Displacement of [125I]2-iodomelatonin from human MT2 receptor expressed in CHO cells. It is filed as cell-based.

The species entered for series [3] is Homo sapiens. The series can be described thus: Selectivity ratio of Ki for human MT2 receptor to Ki for human MT1 receptor.
In series [4] the target is T2, Melatonin receptor type 1A (Homo sapiens, UniProt P48039). In words: Displacement of [125I]2-iodomelatonin from human MT1 receptor expressed in CHO cells. It is filed as cell-based.
T2 sequence (P48039 whole entry): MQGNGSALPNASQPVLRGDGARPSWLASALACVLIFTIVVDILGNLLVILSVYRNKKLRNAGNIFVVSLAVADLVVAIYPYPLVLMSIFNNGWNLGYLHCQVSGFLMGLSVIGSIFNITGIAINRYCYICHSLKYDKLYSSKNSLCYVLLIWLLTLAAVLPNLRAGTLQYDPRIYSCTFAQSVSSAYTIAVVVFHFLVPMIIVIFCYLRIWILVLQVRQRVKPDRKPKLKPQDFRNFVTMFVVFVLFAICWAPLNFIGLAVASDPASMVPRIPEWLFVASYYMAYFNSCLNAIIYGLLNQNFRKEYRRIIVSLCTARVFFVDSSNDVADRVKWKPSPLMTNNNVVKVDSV
The target of series [5] is T2, Melatonin receptor type 1A. In words: Antagonist activity at MT1 receptor (unknown origin) assessed as cAMP accumulation. It counts as functional. A general note: cAMP levels reflect the balance of adenylyl cyclase and phosphodiesterase activity.
The species named for series [6] is Homo sapiens. In words: Selectivity ratio of Ki for MT1 receptor (unknown origin) to Ki for MT2 receptor (unknown origin).
Series [7] deals with T1, Melatonin receptor type 1B. The series can be described thus: Displacement of [125I]2-iodomelatonin from MT2 receptor (unknown origin) expressed in HEK293 cells. It counts as cell-based.
Series [8] addresses T2, Melatonin receptor type 1A. In words: biochemical.
Series [9] is filed under the species Homo sapiens. In words: Selectivity ratio of Ki for human recombinant MT1 receptor to Ki for human recombinant MT2 receptor.
The target in series [10] is T1, Melatonin receptor type 1B. The series can be described thus: Displacement of [125I]2-iodomelatonin from human recombinant MT2 receptor expressed in African green monkey COS7 cells. It counts as cell-based, COS-7. A general note: Loss of bound radioactivity is the signal in a displacement assay; it reports binding, not function.
Series [11] deals with T2, Melatonin receptor type 1A. The series can be described thus: Antagonist activity at MT1 receptor (unknown origin) expressed in mouse NIH3T3 cells by [35S]GTPgammaS binding assay. It is filed as functional. In general terms: GTPγS is a poorly hydrolysed GTP analogue; its binding reports G protein activation.
Series [12] addresses T1, Melatonin receptor type 1B. In words: Antagonist activity at MT2 receptor (unknown origin) expressed in mouse NIH3T3 cells by [35S]GTPgammaS binding assay. It counts as functional.
Series [13] concerns the target T2, Melatonin receptor type 1A. The series can be described thus: Binding affinity to MT1 receptor (unknown origin) expressed in HEK cells. It is filed as cell-based, HEK293.
Series [14] addresses T1, Melatonin receptor type 1B. In words: Binding affinity to MT2 receptor (unknown origin) expressed in HEK cells. It is filed as cell-based, HEK293.
The nature of series [15]: Partial agonist activity at melatonin receptor in chicken brain membranes assessed as cAMP level. It is filed as cell membranes, Gallus gallus, Membrane.
The target in series [16] is T1, Melatonin receptor type 1B. In words: Agonist activity at MT2 receptor (unknown origin) expressed in mouse NIH3T3 cells assessed as inhibition of forskolin-induced cAMP accumulation. It counts as functional, cell-based.
Series [17] deals with T2, Melatonin receptor type 1A. In words: Agonist activity at MT1 receptor (unknown origin) expressed in mouse NIH3T3 cells assessed as inhibition of forskolin-induced cAMP accumulation. It counts as functional, cell-based.
A further series deals with CYP3A4 (Homo sapiens, UniProt P08684). In words: Half life of the compound assessed as CYP3A4 (unknown origin)-mediated drug metabolism. It counts as ADME.
Chain of CYP3A4 (P08684 whole entry): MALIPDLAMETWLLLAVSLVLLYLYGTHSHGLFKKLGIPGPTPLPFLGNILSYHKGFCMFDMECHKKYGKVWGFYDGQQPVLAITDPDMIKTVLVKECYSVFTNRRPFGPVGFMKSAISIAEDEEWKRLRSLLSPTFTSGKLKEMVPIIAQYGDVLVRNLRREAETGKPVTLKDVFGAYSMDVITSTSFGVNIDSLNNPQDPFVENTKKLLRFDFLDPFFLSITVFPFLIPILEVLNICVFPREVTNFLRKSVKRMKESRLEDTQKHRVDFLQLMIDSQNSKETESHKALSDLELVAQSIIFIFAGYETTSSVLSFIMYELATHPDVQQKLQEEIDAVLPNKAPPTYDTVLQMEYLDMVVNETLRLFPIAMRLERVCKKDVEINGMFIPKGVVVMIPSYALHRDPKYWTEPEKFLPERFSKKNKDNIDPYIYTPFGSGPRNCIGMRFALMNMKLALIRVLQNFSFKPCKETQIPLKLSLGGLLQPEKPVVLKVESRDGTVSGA
For series [18], the target named is T1, Melatonin receptor type 1B. In words: Binding affinity to MT2 receptor (unknown origin) expressed in HEK293 cells. It counts as cell-based.
In series [19] the target is T2, Melatonin receptor type 1A. In words: Binding affinity to MT1 receptor (unknown origin) expressed in HEK293 cells. It counts as cell-based.

For `CC(=O)NCCc1cccc2ccc(OCCCCOc3ccc4cccc(CCNC(C)=O)c4c3)cc12`, the Ratio Ki came to 122 in the series listed under Homo sapiens [1] and 54 in the series listed under Homo sapiens [3]. The results for the Ki in [2] and in [4] were 167 nM and 3.1 nM, respectively.

Regarding `COc1cc2c(cc1OC)C(CCc1ccccc1)N(C(C)=O)CC2` (stereo unspecified), the half-inhibitory concentration (IC50) (in general, the concentration that inhibits the measured activity by half) in series [5] was more than 1000 nM.

As for `COc1cccc(Cc2oc3ccc(OC)cc3c2CCNC(C)=O)c1`, in the series listed under Homo sapiens [6], the Ratio Ki stood at 123. The Ki (as a rule, the dissociation constant of the complex between target and ligand, obtained from inhibition or displacement) in [7] was determined as 0.33 nM.

With `COc1cc2[nH]cc(CCNC(C)=O)c2cc1OC`, the inhibitory constant (Ki) in [8] turned out to be 207 nM; in [10] it was 3.5 nM. Moreover, the Ratio Ki in the series listed under Homo sapiens [9] is 60.

On to `CC(=O)NCCc1c[nH]c2ccc(OCCCOc3ccccc3)cc12`, for which the inhibitory constant (Ki) in series [2] stood at 87 nM; in series [4] it was 7.9 nM. Further, the Ratio Ki in the series filed under Homo sapiens [3] came to 10.

Take `COc1ccc2c(c1)C(CNC(C)=O)Cc1ccccc1C2` (stereo unspecified): the Ki in series [11] was 27 nM; in series [12] it was 1.3 nM.

`CCCCCCOc1ccc2c(c1)C(CCNC(C)=O)CCO2` (stereo unspecified): the Ratio Ki in the series listed under Homo sapiens [1] amounted to 25. Besides, the Ki was found to be 21.4 nM in series [2], 3.4 nM in [4], 1.2 nM in series [13] and 29 nM in [14].

On to `CC(=O)NCCc1cccc2ccc(-c3ccc4cccc(CCNC(C)=O)c4c3)cc12`, for which the Ki in series [2] worked out at 246 nM; in series [4] it was 5.2 nM.

Turning to `COc1ccc2oc(Cc3ccccc3)c(CCNC(C)=O)c2c1`, the Ratio Ki in the series listed under Homo sapiens [6] was 23.

`CCCC(=O)NCCCc1cccc2c1OCCO2`: in series [15], the Ki was determined as 2.4 nM.

With `CCOC(=O)c1[nH]c2ccc(OC)c3c2c1[C@@H](CNC(C)=O)CC3`, the Ki in series [16] is 0.29 nM; in [17], 0.18 nM.

For the molecule `CCCC(=O)NCCc1c2n(c3ccc(OC)cc13)CCCc1ccccc1-2`, the Ratio Ki in the series listed under Homo sapiens [9] came out at 132.

Molecule `CCC(=O)NC1Cc2ccccc2C(c2ccccc2)C1` (racemic) came in with a Ki in series [8] of 501 nM. Further, the Ratio Ki in the series filed under Homo sapiens [9] was found to be 330.

With `COc1cc2c(CCNC(C)=O)c(C)[nH]c2cc1Cl`, the Ki in series [10] is 2.2 nM.

With `CCCC(=O)NCCc1c2n(c3ccc(OC)cc13)Cc1ccccc1-2`, the Ratio Ki in the series listed under Homo sapiens [9] was found to be 89.

For the molecule `CC(=O)NCCN(C)c1cccc(OCCCCc2ccccc2)c1`, in series [16], the Ki worked out at 91.2 nM.

Regarding `CC(=O)NCCc1c[nH]c2ccc(OCCCc3ccccc3)cc12`, the inhibitory constant (Ki) turned out to be 49 nM in series [2] and 3.9 nM in series [4]. Besides, the Ratio Ki in the series listed under Homo sapiens [3] turned out to be 10.

As for `CC(=O)NCCc1cccc2ccc(OCCCOc3ccc4cccc(CCNC(C)=O)c4c3)cc12`, the Ki in series [2] was 149 nM; in [4], 3.9 nM. In addition, the Ratio Ki in the series listed under Homo sapiens [3] is 3.

For the molecule `COc1ccc2[nH]cc(CCNC(C)=O)c2c1` [MELATONIN], on CYP3A4, the half-life (usually the time in which the quantity being followed falls by half) was 20 min.

Regarding `COc1ccc2[nH]c(Cc3ccccc3)c(CCNC(C)=O)c2c1`, in the series filed under Homo sapiens [9], the Ratio Ki amounted to 130.

In the case of `COc1cc2c(cc1OC)C(CC(c1ccccc1)c1ccccc1)N(C(C)=O)CC2` (stereo unspecified), in series [5], the IC50 was more than 1000 nM.

`CC(=O)NCCc1c(Cc2ccccc2)[nH]c2ccccc12`: in the series listed under Homo sapiens [9], the Ratio Ki was 15.

For the molecule `CCCNC(=O)CCCc1cccc2c1SCCO2`, the concentration for half-maximal inhibition (IC50) in series [18] was 6.7 nM; in series [19] it was 2.3 nM.

For `C=CCC(=O)NCCc1c(Cc2cccc(OC)c2)oc2ccc(OC)cc12`, the Ratio Ki in the series listed under Homo sapiens [6] worked out at 192.

As to `O=C(NCCCc1cccc2nc(CCCCc3ccccc3)oc12)C1CC1`, the Ratio Ki in the series listed under Homo sapiens [3] was found to be 35.
